Consider three molecules from patent US20030157084A1, “Methods for preparing purified prostaglandin E synthase” (priority 2001, published 2003).

“Also recorded” adds a separate entry of the source.

One data set concerns A549 cells. Nature of the data set: Induction of PGE synthase and cyclooxygenase-2 in A549 cells. The format is cell-based. As to conditions: IL-1β 1 ng/ml. As for the experimental part: Microsomal fractions of A549 cells cultured with or without IL-1 β 1 ng/ml) for 0, 12, 24, 36 or 72 hours were subjected to SDS-PAGE and Western blot analysis. As positive control, the membrane fraction from bacteria expressing human PGE synthase was included. In all lanes of the gel, 10 μg of total protein was analyzed, except for the human PGE synthase where 2 μg was loaded. The Western blot was then incubated with antipeptide antiserum against PGE synthase. The blot was then stripped and incubated with antiserum against COX-2.
In order to study the possible correlation between the result from the Western blot and PGE synthase activity, the corresponding microsomes were incubated in the presence of PGH2 and reduced glutathione as described above. Briefly, microsomes (0.03 mg/ml) were incubated with PGH2 (11 μM) for 30 seconds at 0° C., followed by extraction and analysis by RP-HPLC. […] In addition, no corresponding activity was detected in the cytosolic fractions.

Data set [1] has as its target T1, purified His6-hPGES (Homo sapiens, UniProt O14684).
T1 sequence (O14684 1-152): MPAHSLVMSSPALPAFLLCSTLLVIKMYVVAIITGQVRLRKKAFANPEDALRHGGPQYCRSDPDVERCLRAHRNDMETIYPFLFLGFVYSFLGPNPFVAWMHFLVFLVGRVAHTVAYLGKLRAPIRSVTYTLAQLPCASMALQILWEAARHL
Nature of the data set: LTC4 synthase activity of purified His6-hPGES with LTA4. In kind it is biochemical. Set-up: made in house; host or cells: E. coli BL21(DE3) with pLysSL. The settings on record: 37 ° C.; up to 100 μg/ml enzyme, 30 μM LTA4, 10 mM GSH, pH 7.4.

Data set [2] addresses T1, purified His6-hPGES. Nature of the data set: Glutathione transferase (GST) activity of purified His6-hPGES with CDNB. In kind it is biochemical. Set-up: made in house; host or cells: E. coli BL21(DE3) with pLysSL. The settings on record: purified His6-hPGES incubated with LTA4. As for the experimental part: Glutathione transferase (GST) activity (glutathione conjugation) was assayed with the classical model substrate for GSTs, p-chloro-2,4-dinitrobenzene (CDNB). […] Formation of product was detected at 340 nm (molar absorption coefficient for the product, GS-DNB, is 9.6 mM^−1 cm^−1).

A short description of data set [3]: Kinetic properties of other enzymes with PGE synthase activity (literature). In kind it is biochemical. As to conditions: cytosolic PGES versus His6-hPGES.
The conditions of data set [4]: 24° C.; Tanioka et al. (2000); cited from earlier work.

On to “IL-1β: proinflammatory cytokine interleukin-1β, added to A549 cells at 1 ng/ml”, for which the “COX-2 and PGE synthase protein expression (Western blot)” value in the data set on A549 cells (microsomal fractions, 0-72 hours) is “tandem upregulation of COX-2 and PGE synthase proteins”. The “PGE synthase activity in microsomes” value in the data set on A549 cells (up to 72 hours, microsomes 0.03 mg/ml, PGH2 11 μM, 30 seconds at 0° C.) is listed as “increase over time”.
In the case of `CCCCC/C=C\C\C=C/C=C/C=C/[C@@H]1O[C@H]1CCCC(=O)O` [LTA4, leukotriene (LT) A4], the “Specific activity (LTC4 synthase activity)” value on purified His6-hPGES [1] is listed as “No activity above background could be detected; also recorded: Not detectable above background”. Also, the “GST activity after incubation of the enzyme with LTA4” value at purified His6-hPGES [2] was “no GST activity could be detected”.

B1: Cytosolic PGES LPS-induced: enzyme with PGE synthase activity, Rat, brain (Tanioka et al. 2000); recently identified cytosolic PGES (protein, UniProt P83868 1-160, looked up)
Prostaglandin E synthase 3: MQPASAKWYDRRDYVFIEFCVEDSKDVNVNFEKSKLTFSCLGGSDNFKHLNEIDLFHCIDPNDSKHKRTDRSILCCLRKGESGQSWPRLTKERAKLNWLSVDFNNWKDWEDDSDEDMSNFDRFSEMMDHMGGDEDVDLPEVDGADDDSQDSDDEKMPDLE
For the molecule B1, the “Vmax compared with specific activity of purified His6-hPGES, times lower” value in data set [3] is given as “about 1,000 times”. The “published Vmax” value in data set [4] is 0.19 µmol/min/mg.
